Results: US20030157704A1, “Reagents and methods for identifying and modulating expression of genes regulated by CDK inhibitors” (priority 2001, published 2003)

What was measured:
[1] = system: C8 cells; assay: Apoptosis assay in serum-starved C8 cells; type: cell-based, mouse; details: addition of IPTG by itself
Method: To verify the induction of secreted mitogenic and anti-apoptotic factors by p21, conditioned media from IPTG-treated HT1080 p21-9 cells were tested to investigate whether they would have an effect on cell growth and apoptosis. In these experiments, conditioned media were prepared by plating 10^6 HT1080 p21-9 cells per 15 cm plate in the presence of DMEM/10% FCS. The next day, IPTG was added to a final concentration of 50 μM, and this media was replaced three days later with DMEM supplemented with 0.5% FCS and 50 μM IPTG. Two days later (days 3-5 of IPTG treatment), this conditioned media was collected and stored at 4° C. up to 15 days before use. Control media were prepared by adding IPTG-free DMEM/0.5% FCS to untreated cells grown to the same density as IPTG-treated cells and collecting the media two days thereafter.
The effect of this conditioned media on apoptosis was also determined. […] Apoptosis was analyzed by plating 3×10^5 C8 cells per 6-cm plate, and replacing the media on the following day with fresh media supplemented with 0.4% serum or with conditioned media (no fresh serum added). DNA content analysis and DAPI staining were carried out after 24 hrs and 48 hrs, and relative cell numbers were measured by methylene blue staining (Perry et al., 1992, Mutat. Res. 276: 189-197) after 48 hrs in low-serum media.

[2] = system: HT1080 p21-9 cells; assay: Cell cycle distribution by FACS analysis of DNA content; type: cell-based, human; details: 24 hrs of IPTG treatment
Method: Cell cycle distribution was determined using FACS analysis of DNA content after staining with propidium iodide as described by Jordan et al. (1996, Cancer Res. 56: 816-825) using Becton Dickinson FACSort. Cell cycle distribution stabilized after 24 hrs of IPTG treatment. By this time, 42-43% of IPTG-treated cells were arrested in G1 and G2, respectively, and about 15% of the cells were arrested with S-phase DNA content. IPTG-treated HT1080 p21-9 cells also developed morphological senescence markers (enlarged and flattened morphology and increased granularity), as well as SA-β-gal activity (Chang et al., 1999, ibid.).

[3] = system: HT1080 p16-5 cells; assay: as above; type: cell-based, human; details: 50 μM IPTG, 24 hrs
Method: (§1) This cell population was subcloned, and 20 clonal cell lines were isolated and tested for IPTG-inducible growth inhibition. Cell line showing the strongest growth inhibition was designated HT1080 p16-5. This cell line has been deposited on Jan. 31, 2002 in the American Type Culture Collection (A.T.C.C.), Manassas, Va. and given Accession Number PTA-4020. […] Fractions of cells in different phases of the cell cycle were determined using FACS analysis of DNA content after staining with propidium iodide as described by Jordan et al. (1996, Cancer Res. 56:816-825) using Becton Dickinson FACSort. Cell cycle distribution stabilized after 24 hrs of IPTG treatment, by which time 93% of IPTG-treated cells were arrested in G1. Such G1 arrest is expected from the inhibition of CDK4/6 by p16.

[4] = system: HT1080 p27-2 cells; assay: as above; type: cell-based, human; details: 50 μM IPTG, 24 hrs
Method: as §1
Similarly, the G418-selected population of LNp27RO2 transduced cells was subcloned, and 38 clonal cell lines were isolated and tested for IPTG-inducible growth inhibition. Cell line showing the strongest growth inhibition was designated HT1080 p27-2. This cell line has been deposited on Jan. 31, 2002 in the American Type Culture Collection (A.T.C .C.), Manassas, Va. and given Accession Number PTA-4021. […] Cell cycle distribution stabilized after 24 hrs of IPTG treatment, by which time 89% of IPTG-treated cells were arrested in G1. Such G1 arrest is expected from the inhibition of CDK4/6 by p16.

[5] = system: p21; assay: p21 protein level after IPTG induction (ELISA); type: cell-based, human
Method: FIG. 2A is a graph of the time course of p21 induction after the addition of 50 μM IPTG, where p21 levels were determined by ELISA.
p21 expression from the LNp21CO3 vector in HT1080 p21-9 cells was induced by culturing the cells in DMEM medium containing 10% fetal calf serum (Hyclone, Logan, Utah) and IPTG. […] Upon removing the cells from IPTG-containing media, p21 expression fell about as rapidly as it had risen, returning to pre-induction levels at about 24 hours after IPTG was removed (FIG. 2B).

[6] = system: HT1080 p21-9 cells; assay: Labeling index (3H-thymidine) and mitotic index; type: cell-based, human
Method: Cell growth in the presence of IPTG was assayed in three ways: measuring ^3H-thymidine incorporation (termed the “labeling index”); observing the number of mitotic cells in the culture by microscopy (termed the “mitotic index”) and determining the distribution of the culture cells in different portions of the cell cycle (termed the “cell cycle distribution”).
^3H-thymidine incorporation assays were performed substantially as described by Dimri et al. (1995, Proc. Natl. Acad. Sci. USA 92: 9363-9367). Cells were cultured in the presence of ^3H-thymidine for 3 h, and then analyzed by autoradiography. DNA replication was determined by autoradiography ceased entirely by 9 hours after addition of IPTG to the culture media. The mitotic index was determined by observing cells microscopically and calculating the number of cells in mitosis after staining with 5 μg/mL 4,6-diamino-2-phenylindole (DAPI), and images were collected using a Leica DMIRB fluorescence microscope and Vaytek (Fairfield, Iowa) imaging system. Microscopically-detectable mitotic cells disappeared from these cultures by 14 hrs of IPTG treatment.

CC(C)S[C@@H]1O[C@H](CO)[C@H](O)[C@H](O)[C@H]1O [IPTG, isopropyl-β-thiogalactoside]
apoptosis in C8 cells [1]: no effect
cells arrested in G1 and G2, respectively [2]: 42-43%
cells arrested with S-phase DNA content [2]: about 15%
cells arrested in G1 [3]: 93%
cells arrested in G1 [4]: 89%
time of peak p21 expression post-induction ([5]; 50 μM IPTG): about 24 hours
increase of p21 levels in IPTG-treated cells ([5]; HT1080 p21-9 cells): 15-20 fold
time of IPTG treatment by which mitotic cells disappeared ([6]; DAPI staining, microscopy): ≤ 14 h
time after addition of IPTG by which DNA replication ceased entirely ([6]; autoradiography of 3H-thymidine incorporation): ≤ 9 h
